For 2 molecules, TGI results are on record in PubChem BioAssay (NCI).

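The compound was tested at five concentrations on cells cultured in 96-well plates, with a 48-hour exposure period. Definition used: TGI = concentration required for complete inhibition of growth.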

Some test systems named below: RXF 393 renal; UO-31 renal; NCI-H226 lung; SK-MEL-28 melanoma; HT29 colon; UACC-257 melanoma; SK-MEL-5 melanoma; CAKI-1 renal; SK-MEL-2 melanoma; BT-549 breast; HOP-62 NSCLC; K-562 leukemia; HCT-15 colon; 786-0 renal; HS 578T breast; DU-145 prostate.
Assay in all cases: NCI tumour cell line growth inhibition, 48 h

Regarding `Cc1ccc(N2C(=O)C3c4[nH]c5ccccc5c4C4CCC(C(C)(C)C)CC4C3C2=O)cc1` (configuration not stated), the TGI with RXF 393 renal was determined as 22.1 µM; with UO-31 renal, 31.3 µM; in the experiment with NCI-H226 lung it was 33.2 µM; in the experiment on SK-MEL-28 melanoma it was 49 µM; in the experiment with HT29 colon, 46.1 µM; in the experiment on UACC-257 melanoma, 40.5 µM. For the same molecule, the TGI amounted to 36.4 µM in the experiment on SK-MEL-5 melanoma; 23.2 µM in the experiment on CAKI-1 renal; 44.6 µM with SK-MEL-2 melanoma; 39.3 µM in the experiment on BT-549 breast; 11.6 µM in the experiment with HOP-62 NSCLC; 17.5 µM in the experiment on K-562 leukemia. The TGI was greater than 100 µM in the experiment with HCT-15 colon, 14.8 µM with 786-0 renal, 16.9 µM with HS 578T breast and 5.82 µM in the experiment with DU-145 prostate.

Consider `C=C1CC2OC2(C(=O)O[C@H]2CCC3[C@@H]4CCC5=CC(=O)CC[C@]5(C)C4CC[C@@]32C)C1=O` (some centres not stated), for which the TGI in the experiment with RXF 393 renal came out at 10.9 µM; with UO-31 renal it was 15.4 µM; with NCI-H226 lung, 55.5 µM; in the experiment with SK-MEL-28 melanoma, 17.8 µM; with HT29 colon, 24.3 µM; with UACC-257 melanoma it was 18.3 µM. The TGI turned out to be 27.6 µM with SK-MEL-5 melanoma; 25 µM in the experiment with CAKI-1 renal; 15.1 µM in the experiment on SK-MEL-2 melanoma; 41.9 µM in the experiment with BT-549 breast; 44.4 µM in the experiment on HOP-62 NSCLC; 7.03 µM with K-562 leukemia. For the same molecule, the TGI is 23.1 µM in the experiment on HCT-15 colon, 4.83 µM in the experiment on 786-0 renal, 45.1 µM in the experiment on HS 578T breast and 32.9 µM in the experiment with DU-145 prostate.
